# Data from patent US9109048B2, “Inhibition of tumor growth” (priority 1998, dated 2015).
# pEC50: −log10 of the molar value. Ends that are not written are not given here. Peptide text beside a SMILES is read from it. * marks the point of attachment. Acm = CC(=O)NC*
# Tests used:
# Type in all cases: cell-based
# human red blood cells = test: Hemolytic assay; set-up: % Hemolysis: dose or concentration left out as unconfirmed; conditions: for EC 50 (toxicity, hemolysis) / pEC50: red cells of human
# Procedure: The hemolytic activities of the peptides were determined using fresh human red blood cells. 8 ml blood was taken from a healthy person. 4 ml blood was transferred to a polycarbonate tube containing heparin to a final concentration of 10 U/ml, and the remaining 4 ml blood was transferred to a glass tube containing EDTA with final concentration of 15% EDTA. The erythrocytes were isolated from heparin-treated blood by centrifugation in 1500 rpm for 10 min and washed three times with phosphate-buffered saline (PBS) to remove plasma and buffy coat. The cell pellet was resuspended in PBS to make the final volume of 4 ml. The peptide was diluted to a concentration of 2 mg/ml and 0.1 mg/ml. The peptide was further diluted to the concentrations as stated in Table 1. For each tube PBS was added first, then RBCs and peptide solutions. The hematocrit in the blood treated with EDTA was determined after 30 min with Sysmex K-1000, and the resuspended RBCs were diluted into 10% hematocrit. RBCs in PBS (1%) with and without peptides (Table 18) were incubated in a shaker at 37° for 1 hour and then centrifuged at 4000 rpm for 5 min. The supernatant were carefully transferred to new polycarbonate tubes and the absorbance of the supernatant was measured at 540 nm. Baseline hemolysis was hemoglobin released in the presence of PBS, and 100% hemolysis was hemoglobin released in the presence of 0.1% Triton X-100.
# [1] = tested on: Staphylococcus aureus ATCC 25923; test: MIC (minimum inhibitory concentration) test, microdilution
# Procedure: (§1) The bacterial strains used were: Escherichia coli ATCC 25922 and Staphylococcus aureus ATCC 25923. All strains were stored at −70° C. The bacteria were grown in 2% Bacto Peptone water (Difco 1807-17-4). All tests were performed with bacteria in mid-logarithmic growth phase. Determination of the minimum inhibitory concentration (MIC) of the peptides for bacterial strains were performed in 1% Bacto Peptone water. A standard microdilution technique with an inoculum of 2×10^6 CFU/ml was used. All assays were performed in triplets. Since the peptides are positively charged and therefore could adhere to the plastic wells, we controlled the actual concentration of the peptides in the solution by HPLC. There was no difference between the concentration of the peptides before or after adding the solution to the plastic wells.
# [2] = tested on: Escherichia coli ATCC 25922; test: as above; conditions: for Mic E-coli: Table 19
# Procedure: as §1
compound,measurement,setting,value
CSCC[C@@H](NC(=O)[C@@H](CCCNC(=N)N)NC(=O)[C@@H](Cc1c[nH]c2ccccc12)NC(=O)[C@@H](CCC(N)=O)NC(=O)[C@@H](Cc1c[nH]c2ccccc12)NC(=O)[C@@H](CCCNC(=N)N)NC(=O)[C@@H](CCCNC(=N)N)NC(=O)[C@@H](CSCNC(C)=O)NC(=O)[C@@H](CCCCN)NC(=O)[C@H](N)Cc1ccccc1)C(=O)N[C@H](CCCCN)C(=O)N[C@H](CCCCN)C(=O)N[C@H](CC(C)C)C(=O)NCC(=O)N[C@H](C)C(=O)O [Enantio LFB 17-31],% Hemolysis,human red blood cells,3.05%
CSCC[C@H](NC(=O)[C@H](CCCNC(=N)N)NC(=O)[C@H](Cc1c[nH]c2ccccc12)NC(=O)[C@H](CCC(N)=O)NC(=O)[C@H](Cc1c[nH]c2ccccc12)NC(=O)[C@H](CCCNC(=N)N)NC(=O)[C@H](CCCNC(=N)N)NC(=O)[C@H](CSCNC(C)=O)NC(=O)[C@@H](N)CCCCN)C(=O)N[C@@H](CCCCN)C(=O)N[C@@H](CCCCN)C(=O)N[C@@H](CC(C)C)C(=O)NCC(=O)N[C@@H](C)C(=O)O [LFB 18-31] (H-KC(Acm)RRWQWRMKKLGA-OH; N-terminus and C-terminus assumed),MIC S. aureus,[1]; ATCC 25923,200 µg/mL
same,Minimum inhibitory concentration (MIC) S. aureus ATCC 25923,"[1]; Table 1, value in parentheses",108 µM
same,MIC E. coli,[2]; ATCC 25922,80 µg/mL
same,Minimum inhibitory concentration (MIC) E. coli ATCC 25922,"[2]; Table 1, value in parentheses",43 µM
CSCC[C@H](NC(=O)[C@H](CCCNC(=N)N)NC(=O)[C@H](Cc1c[nH]c2ccccc12)NC(=O)[C@H](CCC(N)=O)NC(=O)[C@H](Cc1c[nH]c2ccccc12)NC(=O)[C@H](CCCNC(=N)N)NC(=O)[C@H](CCCNC(=N)N)NC(=O)[C@@H](N)CSCNC(C)=O)C(=O)N[C@@H](CCCCN)C(=O)N[C@@H](CCCCN)C(=O)N[C@@H](CC(C)C)C(=O)NCC(=O)N[C@@H](C)C(=O)O [LFB 19-31] (H-C(Acm)RRWQWRMKKLGA-OH; N-terminus and C-terminus assumed),Minimum inhibitory concentration (MIC) S. aureus ATCC 25923,"[1]; Table 1, value in parentheses",> 150 µM
same,Minimum inhibitory concentration (MIC) E. coli ATCC 25922,"[2]; Table 1, value in parentheses",120 µM
CSCC[C@H](NC(=O)[C@H](CCCNC(=N)N)NC(=O)[C@H](Cc1c[nH]c2ccccc12)NC(=O)[C@H](CCC(N)=O)NC(=O)[C@H](Cc1c[nH]c2ccccc12)NC(=O)[C@H](CCCNC(=N)N)NC(=O)[C@H](Cc1ccccc1)NC(=O)[C@H](CSCNC(C)=O)NC(=O)[C@H](CCCCN)NC(=O)[C@@H](N)CCCCN)C(=O)N[C@@H](CCCCN)C(=O)N[C@@H](CCCCN)C(=O)N[C@@H](CC(C)C)C(=O)NCC(=O)N[C@@H](C)C(=O)O [LFB F4K1] (H-KKC(Acm)FRWQWRMKKLGA-OH; N-terminus assumed),MIC S. aureus,[1]; ATCC 25923,200 µg/mL
same,Minimum inhibitory concentration (MIC) S. aureus ATCC 25923,"[1]; Table 1, value in parentheses",100 µM
same,MIC E. coli,[2]; ATCC 25922,20 µg/mL
same,Minimum inhibitory concentration (MIC) E. coli ATCC 25922,"[2]; Table 1, value in parentheses",10 µM
CSCC[C@H](NC(=O)[C@H](CCCNC(=N)N)NC(=O)[C@H](Cc1c[nH]c2ccccc12)NC(=O)[C@H](CCC(N)=O)NC(=O)[C@H](Cc1c[nH]c2ccccc12)NC(=O)[C@H](CCCNC(=N)N)NC(=O)[C@H](Cc1ccccc1)NC(=O)[C@H](CSCNC(C)=O)NC(=O)[C@H](CCCCN)NC(=O)[C@@H](N)Cc1ccccc1)C(=O)N[C@@H](CCCCN)C(=O)N[C@@H](CCCCN)C(=O)N[C@@H](CC(C)C)C(=O)NCC(=O)N[C@@H](C)C(=O)O [LFB F4] (H-FKC(Acm)FRWQWRMKKLGA-OH; N-terminus and C-terminus assumed),MIC S. aureus,[1]; ATCC 25923,200 µg/mL
same,Minimum inhibitory concentration (MIC) S. aureus ATCC 25923,"[1]; Table 1, value in parentheses",100 µM
same,MIC E. coli,[2]; ATCC 25922,20 µg/mL
same,Minimum inhibitory concentration (MIC) E. coli ATCC 25922,"[2]; Table 1, value in parentheses",10 µM
CSCC[C@H](NC(=O)[C@H](CCCNC(=N)N)NC(=O)[C@H](Cc1c[nH]c2ccccc12)NC(=O)[C@H](CCC(N)=O)NC(=O)[C@H](Cc1c[nH]c2ccccc12)NC(=O)[C@H](CCCNC(=N)N)NC(=O)[C@H](CCCNC(=N)N)NC(=O)[C@H](CSCNC(C)=O)NC(=O)[C@H](CCCCN)NC(=O)[C@@H](N)CCCCN)C(=O)N[C@@H](CCCCN)C(=O)N[C@@H](CCCCN)C(=O)N[C@@H](CC(C)C)C(=O)NCC(=O)N[C@@H](C)C(=O)O [LFB K1] (H-KKC(Acm)RRWQWRMKKLGA-OH; N-terminus assumed),MIC S. aureus,[1]; ATCC 25923,100 µg/mL
same,Minimum inhibitory concentration (MIC) S. aureus ATCC 25923,"[1]; Table 1, value in parentheses",50 µM
same,MIC E. coli,[2]; ATCC 25922,60 µg/mL
same,Minimum inhibitory concentration (MIC) E. coli ATCC 25922,"[2]; Table 1, value in parentheses",30 µM
CC[C@H](C)[C@H](NC(=O)[C@H](CO)NC(=O)[C@@H]1CCCN1C(=O)[C@H](C)NC(=O)CNC(=O)[C@H](CC(C)C)NC(=O)[C@H](CCCCN)NC(=O)[C@H](CCCNC(=N)N)NC(=O)[C@H](CCSC)NC(=O)[C@H](CCCNC(=N)N)NC(=O)[C@H](CCCNC(=N)N)NC(=O)[C@H](CCC(N)=O)NC(=O)[C@H](Cc1c[nH]c2ccccc12)NC(=O)[C@H](CCC(N)=O)NC(=O)[C@H](Cc1ccc(O)cc1)NC(=O)[C@H](CSCNC(C)=O)NC(=O)[C@H](CCCCN)NC(=O)[C@@H](N)CO)C(=O)N[C@H](C(=O)N[C@@H](CSCNC(C)=O)C(=O)N[C@H](C(=O)N[C@@H](CCCNC(=N)N)C(=O)N[C@@H](CCCNC(=N)N)C(=O)N[C@H](C(=O)N[C@@H](CO)C(=O)O)[C@@H](C)O)C(C)C)[C@@H](C)O [LFC (17-41)] (H-SKC(Acm)YQWQRRMRKLGAPSITC(Acm)VRRTS-OH),Minimum inhibitory concentration (MIC) S. aureus ATCC 25923,[1]; ATCC 25923,1000 µg/mL
same,Minimum inhibitory concentration (MIC) E. coli ATCC 25922,[2]; ATCC 25922,750 µg/mL
CSCC[C@H](NC(=O)[C@H](CCCCN)NC(=O)[C@H](CCCCN)NC(=O)[C@H](CC(C)C)NC(=O)CNC(=O)[C@H](C)N)C(=O)N[C@@H](CCCNC(=N)N)C(=O)N[C@@H](Cc1c[nH]c2ccccc12)C(=O)N[C@@H](CCC(N)=O)C(=O)N[C@@H](Cc1c[nH]c2ccccc12)C(=O)N[C@@H](CCCNC(=N)N)C(=O)N[C@@H](CCCNC(=N)N)C(=O)N[C@@H](CSCNC(C)=O)C(=O)N[C@@H](CCCCN)C(=O)N[C@@H](Cc1ccccc1)C(=O)O [Retro LFB 17-31],% Hemolysis,human red blood cells,2.01%
CSCC[C@@H](NC(=O)[C@@H](CCCCN)NC(=O)[C@@H](CCCCN)NC(=O)[C@@H](CC(C)C)NC(=O)CNC(=O)[C@@H](C)N)C(=O)N[C@H](CCCNC(=N)N)C(=O)N[C@H](Cc1c[nH]c2ccccc12)C(=O)N[C@H](CCC(N)=O)C(=O)N[C@H](Cc1c[nH]c2ccccc12)C(=O)N[C@H](CCCNC(=N)N)C(=O)N[C@H](CCCNC(=N)N)C(=O)N[C@H](CSCNC(C)=O)C(=O)N[C@H](CCCCN)C(=O)N[C@H](Cc1ccccc1)C(=O)O [Retro-Enantio LFB 17-31],% Hemolysis,human red blood cells,3.31%
"FKARRWAWRMKKLGA-OH [LFB A3, 7]","EC 50 (toxicity, hemolysis)",human red blood cells,>1000 µg/mL
GIGKFLKKARKFGRAWVRILKKG [Tosmag W16],MIC S. aureus,[1]; ATCC 25923,5 µg/mL
same,MIC E. coli,[2]; ATCC 25922,10 µg/mL
"GIGKFLKKARKWGRAWVRILKKG [Tosmag W12,16]",MIC S. aureus,[1]; ATCC 25923,10 µg/mL
same,MIC E. coli,[2]; ATCC 25922,5 µg/mL
"GIGKFWHWAKKFGKAFVGEIMNS [Mag 2 W 6,8]",MIC S. aureus,[1]; ATCC 25923,>100 µg/mL
same,MIC E. coli,[2]; ATCC 25922,>100 µg/mL
"PAIRKAFRWAWRMLKKAA [LFB 14-31A2,6,10,17F7I3K16L14R4]",Mic S. Aureus,[1]; Table 19,2/4
same,Mic E-coli,[2],2/4
"PAWFKARRWAWRMLKKAA-OH [LFB 14-31 A2,6,10,17 K16L14]",pEC50,human red blood cells,< 3.36
same,"EC 50 (toxicity, hemolysis)",human red blood cells,>1000 µg/mL
same,MIC S. aureus,[1]; ATCC 25923,4.4 µM
same,MIC S. aureus,[1]; Table 15,10.0 µg/mL
same,MIC E. coli,[2]; ATCC 25922,4.4 µM
same,MIC E. coli,[2]; Table 15,10.0 µg/mL
"PAWRKAFRWAIRMLKKAA [LFB 14-31A2,6,10,17F7I11K16L14R4]",Mic E-coli,[2],2/5
"PAWRKAFRWAWRMKKLAA-OH [LFB 14-31 A2,6,10,17F7R4]",pEC50,human red blood cells,< 3.36
same,"EC 50 (toxicity, hemolysis)",human red blood cells,>1000 µg/mL
same,MIC E. coli,[2]; ATCC 25922,4.4 µM
same,MIC E. coli,[2]; Table 8,10 µg/mL
same,MIC E. coli,[2]; Table 15,10.0 µg/mL
"PAWRKAFRWAWRMLKKAA-OH [LFB 14-31 A2,6,10,17 F7K16L14R4]",Mic E-coli,[2],2/4
"PAWRKARRWARRMKKLAA-OH [LFB 14-31 A2,6,10,17R4,11]","EC 50 (toxicity, hemolysis)",human red blood cells,>1000 µg/mL
RRWQWRMKKLGA-OH [LFB 20-31],MIC S. aureus,[1]; ATCC 25923,200 µg/mL
same,Minimum inhibitory concentration (MIC) S. aureus ATCC 25923,"[1]; Table 1, value in parentheses",124 µM
same,MIC E. coli,[2]; ATCC 25922,100 µg/mL
same,Minimum inhibitory concentration (MIC) E. coli ATCC 25922,"[2]; Table 1, value in parentheses",62 µM
"YRAWRWAWRWR-NH2 [LFM 17-27 A7R2,8,9W3,4,10Y1 NH2, TYR-ARG-ALA-TRP-ARG-TRP-ALA-TRP-ARG-TRP-ARG-CONH2]",MIC S. aureus,[1]; ATCC 25923,2.5 µg/mL
same,MIC E. coli,[2]; ATCC 25922,10 µg/mL
"YRMWRWAWRWR-NH2 [LFB 17-27 A7 M3 R2,11 W4,10 Y1 NH2]",MIC E. coli,[2]; ATCC 25922,5.7 µM
same,MIC E. coli,[2]; Table 15,10.0 µg/mL
"YRWARWWRR-NH2 [LFM 17-25 A4R2,8,9W3,7Y1NH2]",pEC50,human red blood cells,< 3.16
same,"EC 50 (toxicity, hemolysis)",human red blood cells,>1000 µg/mL
same,MIC E. coli,[2]; ATCC 25922,7.0 µM
same,MIC E. coli,[2]; Table 12,10 µg/mL
same,MIC E. coli,[2]; Table 15,10.0 µg/mL
